Results: patent US7071158B2, “Antioxidant enhancement of therapy for hyperproliferative conditions” (Atherogenics, Inc., priority 1997, dated 2006)

What was measured:
[1] = test system: HCT 116; test: DNA fragmentation after PDTC treatment; format: cell-based, human; conditions: 70 μM
[2] = test system: DLD-1; test: DNA fragmentation after PDTC treatment; format: cell-based; conditions: 70 μM
[3] = test system: HCT 15 cells; test: Soft-agar colony formation (anchorage-independent growth); conditions: Homo sapiens, HCT-15, 240 h, read-out: approximate IC50 in soft agar
Experimental: (§1) FIG. 1A is a graph of the concentration of PDTC versus soft-agar forming units×10^6 HCT 15 and HCT 116 cells (as a percent of control). […] Soft-agar colony formation was measured by seeding HCT 116 or HCT 15 cells in soft agar supplemented with either medium alone (control), or increasing concentrations of pyrrolidinedithiocarbamate (25–200 μM) or vitamin E (0.1–10 mM). Colonies were scored at the end of 10 days incubation at 37° C. Values are representative of three experiments carried out in quadruplicate.
(§2) HCT 116 and HCT 15 cells were seeded in soft agar as described above containing increasing concentrations of either 5-FU (5×10^−8 to 5×10^−5 M) or doxorubicin (1×10^−9 to 1×10^−6 M), in the presence or absence of pyrrolidinedithiocarbamate (70 μM) or vitamin E (3 mM). Colonies were scored after 10 days and IC50 values were calculated as the concentration of 5-FU or doxorubicin required to reduce basal colony formation by 50% (±s.e.m.). Values are representative of three experiments carried out in quadruplicate.

[4] = test system: HCT 116 cells; test: as above; conditions: Homo sapiens, HCT-116, 240 h, read-out: approximate IC50 in soft agar
Experimental: as §1, §2

[5] = test system: Mutant p53 HCT 15; test: DNA fragmentation after PDTC treatment; format: cell-based, human; conditions: 70 μM
[6] = test system: HCT 15-derived tumors; test: HCT 15 tumor xenografts in athymic mice; format: in vivo; conditions: HCT 15-derived tumors, after 3 weeks of single agent treatment, before cross-over
Experimental: HCT 15-derived tumors were generated as described above. Animals were then treated with pyrrolidinedithiocarbamate, in the presence or absence of 5-FU, for 3 weeks. At this point, treatments were discontinued in animals receiving the combined treatment of pyrrolidinedithiocarbamate and 5-FU for 2 months. All other treatment groups received both 5-FU and pyrrolidinedithiocarbamate for the remaining 3 weeks.
Male athymic Balb/c nu/nu mice were obtained from the Harlan Sprague-Dawley Company at 4–6 weeks of age and were quarantined for at least 2 weeks before the study. […] HCT 116 and HCT 15 CRC cell lines were grown in DMEM supplemented with 10% FBS as described above. Cells were harvested through two consecutive trypsinizations, centrifuged at 300 g for 5 minutes, washed twice, and resuspended in sterile phosphate buffered saline. One ×10^6 cells in 0.2 ml were injected subcutaneously between the scapula of 7- to 10-week-old male nude mice.
Tumor volumes were estimated weekly by measuring the maximal length, width, and height. Once tumors reached a mean size of 120 to 150 mm^3, animals received either weekly i.p. injections of pyrrolidinedithiocarbamate (70 μM) or vitamin E (3 mM), 5-FU (40 mg/kg) or saline, or a combination of pyrrolidinedithiocarbamate or vitamin E and 5-FU or 6 weeks. In cross-over experiments, animals received the above treatments for three weeks (with the exception of vitamin E), and then were crossed-over to either the combination treatment of pyrrolidinedithiocarbamate and 5-FU (saline, pyrrolidinedithiocarbamate or 5-FU alone) or discontinued treatment pyrrolidinedithiocarbamate and 5-FU) for the remaining three weeks of the experiment. […] Tumor volumes were recorded weekly until termination of the study.
Tumor tissues were fixed overnight in 4% (v/v) paraformaldehyde and embedded in paraffin according to standard histological procedures. […] The proliferative index (BrDU) and the apoptotic index (TUNEL) were estimated by the percentage of cells scored under a microscope at 200-fold magnification.

[7] = test system: Wild Type p53 HCA-7; test: DNA fragmentation after PDTC treatment; format: cell-based; conditions: 70 μM
[8] = test system: Primary colonocytes; test: DNA fragmentation after PDTC treatment; format: cell-based, human; conditions: 70 μM
[9] = test system: DKO-3; test: DNA fragmentation after PDTC treatment; format: cell-based; conditions: 70 μM
[10] = test system: murine small intestine and the murine colon; conditions: mouse, in vivo
[11] = test system: MDA MB-468; test: Effect of PDTC on cell proliferation (IC50); format: cell-based; conditions: Homo sapiens, Breast carcinoma cells, read-out: IC50 required to inhibit cellular proliferation or induce apoptosis
Experimental: (§3) The effect of PDTC on cellular proliferation or apoptosis was evaluated in a number of normal and cancer cell lines. The IC50 was measured as the concentration of PDTC that inhibited cellular proliferation.

[12] = test system: PANC-1; test: Effect of PDTC on cell proliferation (IC50); format: cell-based; conditions: Homo sapiens, Pancreatic carcinoma cells, read-out: IC50 required to inhibit cellular proliferation or induce apoptosis
Experimental: as §3

[13] = test system: Primary mammary epithelia; test: Effect of PDTC on cell proliferation (IC50); format: cell-based; conditions: Homo sapiens, Normal cells, read-out: IC50 required to inhibit cellular proliferation or induce apoptosis
Experimental: as §3

[14] = test system: Primary colonocytes; test: Effect of PDTC on cell proliferation (IC50); format: cell-based; conditions: Homo sapiens, Normal cells, read-out: IC50 required to inhibit cellular proliferation or induce apoptosis
Experimental: as §3

[15] = test system: Saos-2; test: Effect of PDTC on cell proliferation (IC50); format: cell-based; conditions: Homo sapiens, Osteosarcoma, read-out: IC50 required to inhibit cellular proliferation or induce apoptosis
Experimental: as §3

[16] = test system: MCF-10HRas; test: Effect of PDTC on cell proliferation (IC50); format: cell-based; conditions: Breast carcinoma cell, Breast carcinoma cells, read-out: IC50 required to inhibit cellular proliferation or induce apoptosis
Experimental: as §3

[17] = test system: Keratinocytes; test: Effect of PDTC on cell proliferation (IC50); format: cell-based; conditions: Homo sapiens, Keratinocyte, Normal cells, read-out: IC50 required to inhibit cellular proliferation or induce apoptosis
Experimental: as §3

[18] = test system: N-87; test: Effect of PDTC on cell proliferation (IC50); format: cell-based; conditions: Gastric carcinoma cells, read-out: IC50 required to inhibit cellular proliferation or induce apoptosis
Experimental: as §3

[19] = test system: BxPc3; test: Effect of PDTC on cell proliferation (IC50); format: cell-based; conditions: Homo sapiens, BXPC-3, Pancreatic carcinoma cells, read-out: IC50 required to inhibit cellular proliferation or induce apoptosis
Experimental: as §3

[20] = test system: Non-transformed rat intestinal epithelial cells; test: Effect of PDTC on cell proliferation (IC50); format: cell-based; conditions: Normal cells, read-out: IC50 required to inhibit cellular proliferation or induce apoptosis
Experimental: as §3

[21] = test system: MCF-7; test: Effect of PDTC on cell proliferation (IC50); format: cell-based; conditions: Homo sapiens, MCF7, Breast carcinoma cells, read-out: IC50 required to inhibit cellular proliferation or induce apoptosis
Experimental: as §3

[22] = test system: MDA-MB231; test: Effect of PDTC on cell proliferation (IC50); format: cell-based; conditions: Homo sapiens, MDA-MB-231, Breast carcinoma cells, read-out: IC50 required to inhibit cellular proliferation or induce apoptosis
Experimental: as §3

[23] = test system: AsPo1; test: Effect of PDTC on cell proliferation (IC50); format: cell-based; conditions: Pancreatic carcinoma cells, read-out: IC50 required to inhibit cellular proliferation or induce apoptosis
Experimental: as §3

[24] = test system: MCF-10WT; test: Effect of PDTC on cell proliferation (IC50); format: cell-based; conditions: Breast carcinoma cell, Breast carcinoma cells, read-out: IC50 required to inhibit cellular proliferation or induce apoptosis
Experimental: as §3

[25] = test system: Hs746T; test: Effect of PDTC on cell proliferation (IC50); format: cell-based; conditions: Homo sapiens, Gastric carcinoma cells, read-out: IC50 required to inhibit cellular proliferation or induce apoptosis
Experimental: as §3

SMILES: S=C(S)N1CCCC1 [PDTC, pyrrolidinedithiocarbamate]
- DNA Fragmentation after PDTC Treatment ([1]; 3 h): 108 ± 11 % Control
- DNA Fragmentation after PDTC Treatment ([1]; 6 h): 131 ± 21 % Control
- DNA Fragmentation after PDTC Treatment ([1]; 12 h): 198 ± 23 % Control
- DNA Fragmentation after PDTC Treatment ([1]; 24 h): 367 ± 49 % Control
- DNA Fragmentation after PDTC Treatment ([2]; 3 h): 213 ± 17 % Control
- DNA Fragmentation after PDTC Treatment ([2]; 6 h): 296 ± 21 % Control
- DNA Fragmentation after PDTC Treatment ([2]; 12 h): 712 ± 34 % Control
- DNA Fragmentation after PDTC Treatment ([2]; 24 h): 876 ± 46 % Control
- IC50 [3]: ~70 µM
- IC50 [4]: ~70 µM
- DNA Fragmentation after PDTC Treatment ([5]; 3 h): 145 ± 12 % Control
- DNA Fragmentation after PDTC Treatment ([5]; 6 h): 259 ± 18 % Control
- DNA Fragmentation after PDTC Treatment ([5]; 12 h): 673 ± 34 % Control
- DNA Fragmentation after PDTC Treatment ([5]; 24 h): 979 ± 34 % Control
- tumor size [6]: 1325+210 mm^3
- DNA Fragmentation after PDTC Treatment ([7]; 3 h): 111 ± 13 % Control
- DNA Fragmentation after PDTC Treatment ([7]; 6 h): 126 ± 17 % Control
- DNA Fragmentation after PDTC Treatment ([7]; 12 h): 154 ± 19 % Control
- DNA Fragmentation after PDTC Treatment ([7]; 24 h): 302 ± 35 % Control
- DNA Fragmentation after PDTC Treatment ([8]; 3 h): 101 ± 10 % Control
- DNA Fragmentation after PDTC Treatment ([8]; 6 h): 109 ± 9 % Control
- DNA Fragmentation after PDTC Treatment ([8]; 12 h): 107 ± 10 % Control
- DNA Fragmentation after PDTC Treatment ([8]; 24 h): 130 ± 16 % Control
- DNA Fragmentation after PDTC Treatment ([9]; 3 h): 223 ± 11 % Control
- DNA Fragmentation after PDTC Treatment ([9]; 6 h): 478 ± 16 % Control
- DNA Fragmentation after PDTC Treatment ([9]; 12 h): 896 ± 23 % Control
- DNA Fragmentation after PDTC Treatment ([9]; 24 h): 1116 ± 54 % Control
- toxicity of 5-FU [10]: substantially reduces the toxicity of 5-FU
- IC50 [11]: 20 µM
- IC50 [12]: 75 µM
- IC50 [13]: 650 µM
- IC50 [14]: 500 µM
- IC50 [15]: 10 µM
- IC50 [16]: 5 µM
- IC50 [17]: 600 µM
- IC50 [18]: 40 µM
- IC50 [19]: 100 µM
- IC50 [20]: 450 µM
- IC50 [21]: 13 µM
- IC50 [22]: 10 µM
- IC50 [23]: 70 µM
- IC50 [24]: 5 µM
- IC50 [25]: 35 µM
